Laboratory results reported in patent US6900224B2, “Antimicrobial quinolones, their compositions and uses” (The Procter & Gamble Company, priority 2002, dated 2005).

How the values were obtained:
Escherichia coli = test: treatment of human subject with urinary tract infection, enteric coated oral tablets; format: in vivo; details: two enteric coated tablets (350 mg each) orally every 8 hours for 4 days
Source text: An enteric coated antimicrobial composition for oral administration, according to this invention, is made comprising the following core tablet:
The components are admixed into a bulk mixture. Compressed tablets are formed, using tabletting methods known in the art. The tablet is then coated with a suspension of methacrylic acid/methacrylic acid ester polymer in isopropanol/acetone. A human subject, having a urinary tract infection with Escherichia coli present, is orally administered two of the tablets, every 8 hours, for 4 days.

Streptococcus pneumoniae = details: human, lower respiratory tract infection with Streptococcus pneumoniae; 30 mg/mL suspension, approx. 2.0 mL intramuscular twice daily for approx. 14 days; after 4 days
Procedure: An antimicrobial composition for parenteral administration, according to this invention, is made comprising:
The above ingredients are mixed, forming a suspension. Approximately 2.0 mL of the suspension is systemically administered, via intramuscular injection, to a human subject suffering from a lower respiratory tract infection, with Streptococcus pneumoniae present. This dosage is repeated twice daily, for approximately 14 days.

[1] = reported side effect; cited from earlier work

7-[7-amino-8R-methyl-5-azaspiro[2.5]-octanyl]-1-cyclopropyl-1,4-dihydro-6-fluoro-8-methoxy-4-oxo-3-quinolinecarboxylic acid hydrochloride [Example 5]
symptoms of the disease / eradication of the pathogen (Escherichia coli): Symptoms of the disease then subside

CC[C@@H]1[C@H](N)CN(c2nc3c(cc2F)c(=O)c(C(=O)O)cn3C2CC2)C[C@@H]1C.Cl [Example 12, 7-[3S-amino-4S-ethyl-5R-methyl-piperidinyl]-1-Cyclopropyl-1,4-dihydro-6-fluoro-4-oxo-1,8-naphthyridine-3-carboxylic acid hydrochloride]
symptoms of the disease / eradication of the pathogen (Streptococcus pneumoniae): symptoms of the disease subside

COc1c(N2CCNC(C)C2)c(F)cc2c(=O)c(C(=O)O)cn(C3CC3)c12 (racemic) [gatifloxacin, (±)-1-cyclopropyl-6-fluoro-1,4-dihydro-8-methoxy-7-(3-methyl-1-piperazinyl)-4-oxo-3-quinoline carboxylic acid]
clastogenicity [1]: exhibit clastogenicity
